In ChEMBL document CHEMBL3885861, “Open TG-GATES”:

Species on record: Rattus norvegicus
Assay: Open TG-GATES - Regimen: Single
Assay type: toxicity, organism-based, Sprague-Dawley
Set-up: regimen Single, gender Male, age 6 weeks
Conditions: in vivo, po, 300 mg/kg, route gavage, dose level Middle; for APTT / Bas / Eos / Fbg / Hb / Ht / Lym / MCH / MCHC / MCV / Mono / Neu / PT / Plat / RBC / Ret / WBC: tissue Blood; for KIDNEY_L / KIDNEY_R / KIDNEY_TOTAL: tissue Kidney; for LIVER: tissue Liver; for A/G / ALP / ALT / AST / BUN / CRE / Ca / Cl / DBIL / GLC / IP / K / LDH / Na / PL / RALB / TBIL / TC / TG / TP / gamma-GTP: tissue Plasma

In the case of CC(C)(S)[C@@H](N)C(=O)O [PENICILLAMINE], the TERMINAL_BW (3 h) is reported as 203.8 g, the APTT (3 h) is reported as 16.5 s and the Bas (3 h) is reported as 0%. For the same compound, the Eos (3 h) was 0.8%, the Fbg (3 h) was 315.2 mg/dL and the Hb (3 h) was 13.2 g/dL. It also gave a Ht (3 h) of 40.7%, a Lym (3 h) of 75.4% and an MCH (3 h) of 20.9 pg. It also gave an MCHC (3 h) of 32.3%, an MCV (3 h) of 64.7 fL and a Mono (3 h) of 3.8%. The Neu (3 h) was 19.4%, the PT (3 h) was 15.1 s and the Plat (3 h) was 123.1 x10_4/uL. For the same compound, the RBC (3 h) was 629.8 x10_4/ul, the Ret (3 h) was 9% and the WBC (3 h) was 73.3 x10_2/uL. The KIDNEY_L (3 h) was 0.8 g, the KIDNEY_R (3 h) was 0.9 g and the KIDNEY_TOTAL (3 h) was 1.7 g. It also gave an LIVER (3 h) of 8.6 g, an A/G (3 h) of 0.9 and an ALP (3 h) of 1102.4 IU/L. It also gave an ALT (3 h) of 43.6 IU/L, an AST (3 h) of 73.4 IU/L and a BUN (3 h) of 8.4 mg/dL. The CRE (3 h) was 0.2 mg/dL, the Ca (3 h) was 10.9 mg/dL and the Cl (3 h) was 106.2 meq/L. The DBIL (3 h) was 0.01 mg/dL, the GLC (3 h) was 175 mg/dL and the IP (3 h) was 8.4 mg/dL. It also gave a K (3 h) of 4.3 meq/L, an LDH (3 h) of 57.4 IU/L and a Na (3 h) of 142.6 meq/L. For the same compound, the PL (3 h) was 139.2 mg/dL, the RALB (3 h) was 2.5 g/dL and the TBIL (3 h) was 0.034 mg/dL. The TC (3 h) was 73.8 mg/dL, the TG (3 h) was 87.8 mg/dL and the TP (3 h) was 5.3 g/dL. It also gave a gamma-GTP (3 h) of 1 IU/L, a TERMINAL_BW (6 h) of 200.3 g and an APTT (6 h) of 14.8 s. For the same compound, the Bas (6 h) was 0%, the Eos (6 h) was 0.8% and the Fbg (6 h) was 313.6 mg/dL. The Hb (6 h) was 13.4 g/dL, the Ht (6 h) was 41.5% and the Lym (6 h) was 74.6%. The MCH (6 h) was 20.4 pg, the MCHC (6 h) was 32.3% and the MCV (6 h) was 63.4 fL. The Mono (6 h) was 3%, the Neu (6 h) was 20.6% and the PT (6 h) was 14.6 s. The Plat (6 h) was 121.5 x10_4/uL, the RBC (6 h) was 655.4 x10_4/ul and the Ret (6 h) was 8.7%. For the same compound, the WBC (6 h) was 87.9 x10_2/uL, the KIDNEY_L (6 h) was 0.9 g and the KIDNEY_R (6 h) was 0.9 g. For the same compound, the KIDNEY_TOTAL (6 h) was 1.8 g, the LIVER (6 h) was 8.2 g and the A/G (6 h) was 0.9. The ALP (6 h) was 1066.8 IU/L, the ALT (6 h) was 36.6 IU/L and the AST (6 h) was 72 IU/L. For the same compound, the BUN (6 h) was 8.2 mg/dL, the CRE (6 h) was 0.2 mg/dL and the Ca (6 h) was 10.7 mg/dL. It also gave a Cl (6 h) of 106.2 meq/L, a DBIL (6 h) of 0.012 mg/dL and a GLC (6 h) of 182.8 mg/dL. It also gave an IP (6 h) of 9.5 mg/dL, a K (6 h) of 4.4 meq/L and an LDH (6 h) of 60.8 IU/L. The Na (6 h) was 142.8 meq/L, the PL (6 h) was 139.6 mg/dL and the RALB (6 h) was 2.5 g/dL. It also gave a TBIL (6 h) of 0.038 mg/dL, a TC (6 h) of 79.2 mg/dL and a TG (6 h) of 47.4 mg/dL. It also gave a TP (6 h) of 5.2 g/dL, a gamma-GTP (6 h) of 1 IU/L and a TERMINAL_BW (9 h) of 198.7 g. For the same compound, the APTT (9 h) was 16.2 s, the Bas (9 h) was 0% and the Eos (9 h) was 0.8%. For the same compound, the Fbg (9 h) was 304.8 mg/dL, the Hb (9 h) was 13.2 g/dL and the Ht (9 h) was 40.9%. For the same compound, the Lym (9 h) was 76.8%, the MCH (9 h) was 20.8 pg and the MCHC (9 h) was 32.2%. The MCV (9 h) was 64.4 fL, the Mono (9 h) was 3% and the Neu (9 h) was 18.6%. The PT (9 h) was 15.2 s, the Plat (9 h) was 120.8 x10_4/uL and the RBC (9 h) was 634.2 x10_4/ul. It also gave a Ret (9 h) of 8.9%, a WBC (9 h) of 73.6 x10_2/uL and a KIDNEY_L (9 h) of 0.9 g. For the same compound, the KIDNEY_R (9 h) was 0.9 g, the KIDNEY_TOTAL (9 h) was 1.7 g and the LIVER (9 h) was 7.7 g. The A/G (9 h) was 0.9, the ALP (9 h) was 1040.2 IU/L and the ALT (9 h) was 32.8 IU/L. The AST (9 h) was 67 IU/L, the BUN (9 h) was 8 mg/dL and the CRE (9 h) was 0.2 mg/dL. The Ca (9 h) was 10.6 mg/dL, the Cl (9 h) was 107.2 meq/L and the DBIL (9 h) was 0.01 mg/dL. It also gave a GLC (9 h) of 175.4 mg/dL, an IP (9 h) of 9.9 mg/dL and a K (9 h) of 4 meq/L. The LDH (9 h) was 58 IU/L, the Na (9 h) was 142.8 meq/L and the PL (9 h) was 128.8 mg/dL. The RALB (9 h) was 2.5 g/dL, the TBIL (9 h) was 0.042 mg/dL and the TC (9 h) was 73.6 mg/dL. The TG (9 h) was 39.4 mg/dL, the TP (9 h) was 5.2 g/dL and the gamma-GTP (9 h) was 1 IU/L. It also gave a TERMINAL_BW (24 h) of 216.3 g, an APTT (24 h) of 15.1 s and a Bas (24 h) of 0.2%. It also gave an Eos (24 h) of 1%, a Fbg (24 h) of 290.8 mg/dL and a Hb (24 h) of 13.5 g/dL. It also gave a Ht (24 h) of 41.5%, a Lym (24 h) of 82.2% and an MCH (24 h) of 21.1 pg. It also gave an MCHC (24 h) of 32.5%, an MCV (24 h) of 64.7 fL and a Mono (24 h) of 3%. For the same compound, the Neu (24 h) was 12.6%, the PT (24 h) was 14 s and the Plat (24 h) was 123.4 x10_4/uL. The RBC (24 h) was 640.6 x10_4/ul, the Ret (24 h) was 8.3% and the WBC (24 h) was 101.5 x10_2/uL. The KIDNEY_L (24 h) was 0.9 g, the KIDNEY_R (24 h) was 0.9 g and the KIDNEY_TOTAL (24 h) was 1.8 g. For the same compound, the LIVER (24 h) was 10.1 g, the A/G (24 h) was 0.9 and the ALP (24 h) was 1515 IU/L. It also gave an ALT (24 h) of 39.2 IU/L, an AST (24 h) of 65.8 IU/L and a BUN (24 h) of 13.4 mg/dL. It also gave a CRE (24 h) of 0.2 mg/dL, a Ca (24 h) of 11.1 mg/dL and a Cl (24 h) of 105.6 meq/L. The DBIL (24 h) was 0.012 mg/dL, the GLC (24 h) was 172.4 mg/dL and the IP (24 h) was 8.2 mg/dL. It also gave a K (24 h) of 4.1 meq/L, an LDH (24 h) of 79.4 IU/L and a Na (24 h) of 144.2 meq/L. The PL (24 h) was 164.8 mg/dL, the RALB (24 h) was 2.6 g/dL and the TBIL (24 h) was 0.028 mg/dL. The TC (24 h) was 86.6 mg/dL, the TG (24 h) was 126 mg/dL and the TP (24 h) was 5.5 g/dL. The gamma-GTP (24 h) was 1.2 IU/L.
